Assay results: PubChem BioAssay AID1963958 (Molecular Pharmacology Branch, DTP, NCI, 2024)

Tested on: MDA-MB-231 multicell spheroids, viability
Assay: Anticancer human tumor MDA-MB-231 cell line growth inhibition [PI3K];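 also: spheroids exposed to agents for seven days before reading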;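 as to viability, T/C: percent of vehicle control luminescence with DMSO treated spheroids as 100%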
Details: for IC50: curve of first compound; for viability, T/C: stronger effect = lower value
Method in brief: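 Complex 3D spheroids (cancer cells + endothelial HUVEC + mesenchymal stem cells); drug pairs of targeted agent x inavolisib/alpelisib/duvelisib/copanlisib; half-log series from ~Cmax, max 10 microM if Cmax unknown; endpoint viability.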

SMILES: CNC(=O)c1ccc(N2C(=S)N(c3ccc(C#N)c(C(F)(F)F)c3)C(=O)C2(C)C)cc1F + CC(Nc1ncnc2nc[nH]c12)c1cc2cccc(Cl)c2c(=O)n1-c1ccccc1
- IC50 (second compound 0.0316 µM): > 10000 nM
- IC50 (second compound 0.1 µM): > 10000 nM
- IC50 (second compound 0.316 µM): > 10000 nM
- IC50 (second compound 1 µM): > 10000 nM
- IC50 (second compound 3.16 µM): > 10000 nM
- IC50 (second compound 10 µM): 89.7 nM
- viability, T/C (second compound 0.0316 µM, first compound 0.0316 µM): 101%
- viability, T/C (second compound 0.0316 µM, first compound 0.1 µM): 110%
- viability, T/C (second compound 0.0316 µM, first compound 0.316 µM): 102%
- viability, T/C (second compound 0.0316 µM, first compound 1 µM): 94%
- viability, T/C (second compound 0.0316 µM, first compound 3.16 µM): 97.5%
- viability, T/C (second compound 0.0316 µM, first compound 10 µM): 70.3%
- viability, T/C (second compound 0.1 µM, first compound 0.0316 µM): 93%
- viability, T/C (second compound 0.1 µM, first compound 0.1 µM): 96%
- viability, T/C (second compound 0.1 µM, first compound 0.316 µM): 105%
- viability, T/C (second compound 0.1 µM, first compound 1 µM): 101%
- viability, T/C (second compound 0.1 µM, first compound 3.16 µM): 95.7%
- viability, T/C (second compound 0.1 µM, first compound 10 µM): 79.9%
- viability, T/C (second compound 0.316 µM, first compound 0.0316 µM): 89%
- viability, T/C (second compound 0.316 µM, first compound 0.1 µM): 96.8%
- viability, T/C (second compound 0.316 µM, first compound 0.316 µM): 91.1%
- viability, T/C (second compound 0.316 µM, first compound 1 µM): 99.2%
- viability, T/C (second compound 0.316 µM, first compound 3.16 µM): 85.5%
- viability, T/C (second compound 0.316 µM, first compound 10 µM): 72.9%
- viability, T/C (second compound 1 µM, first compound 0.0316 µM): 81.2%
- viability, T/C (second compound 1 µM, first compound 0.1 µM): 84.1%
- viability, T/C (second compound 1 µM, first compound 0.316 µM): 75.4%
- viability, T/C (second compound 1 µM, first compound 1 µM): 77.2%
- viability, T/C (second compound 1 µM, first compound 3.16 µM): 76.3%
- viability, T/C (second compound 1 µM, first compound 10 µM): 64.1%
- viability, T/C (second compound 3.16 µM, first compound 0.0316 µM): 61.4%
- viability, T/C (second compound 3.16 µM, first compound 0.1 µM): 59.5%
- viability, T/C (second compound 3.16 µM, first compound 0.316 µM): 63.1%
- viability, T/C (second compound 3.16 µM, first compound 1 µM): 61.4%
- viability, T/C (second compound 3.16 µM, first compound 3.16 µM): 62.3%
- viability, T/C (second compound 3.16 µM, first compound 10 µM): 51%
- viability, T/C (second compound 10 µM, first compound 0.0316 µM): 49.5%
- viability, T/C (second compound 10 µM, first compound 0.1 µM): 51.6%
- viability, T/C (second compound 10 µM, first compound 0.316 µM): 47.3%
- viability, T/C (second compound 10 µM, first compound 1 µM): 49.4%
- viability, T/C (second compound 10 µM, first compound 3.16 µM): 42.3%
- viability, T/C (second compound 10 µM, first compound 10 µM): 39.7%

SMILES: Cn1cnc2c(F)c(Nc3ccc(Br)cc3Cl)c(C(=O)NOCCO)cc21 + CC(Nc1ncnc2nc[nH]c12)c1cc2cccc(Cl)c2c(=O)n1-c1ccccc1
- IC50 (second compound 0.0316 µM): 208 nM
- IC50 (second compound 0.1 µM): 170 nM
- IC50 (second compound 0.316 µM): 41.7 nM
- IC50 (second compound 1 µM): 24.5 nM
- IC50 (second compound 3.16 µM): < 9.49 nM
- IC50 (second compound 10 µM): < 9.49 nM
- viability, T/C (second compound 0.0316 µM, first compound 0.00949 µM): 75%
- viability, T/C (second compound 0.0316 µM, first compound 0.03 µM): 63.7%
- viability, T/C (second compound 0.0316 µM, first compound 0.0949 µM): 50.3%
- viability, T/C (second compound 0.0316 µM, first compound 0.3 µM): 50.5%
- viability, T/C (second compound 0.0316 µM, first compound 0.949 µM): 44.5%
- viability, T/C (second compound 0.0316 µM, first compound 3 µM): 31.8%
- viability, T/C (second compound 0.1 µM, first compound 0.00949 µM): 72.2%
- viability, T/C (second compound 0.1 µM, first compound 0.03 µM): 63.9%
- viability, T/C (second compound 0.1 µM, first compound 0.0949 µM): 50.2%
- viability, T/C (second compound 0.1 µM, first compound 0.3 µM): 47.5%
- viability, T/C (second compound 0.1 µM, first compound 0.949 µM): 41.8%
- viability, T/C (second compound 0.1 µM, first compound 3 µM): 30.6%
- viability, T/C (second compound 0.316 µM, first compound 0.00949 µM): 65%
- viability, T/C (second compound 0.316 µM, first compound 0.03 µM): 53%
- viability, T/C (second compound 0.316 µM, first compound 0.0949 µM): 42.3%
- viability, T/C (second compound 0.316 µM, first compound 0.3 µM): 41%
- viability, T/C (second compound 0.316 µM, first compound 0.949 µM): 39.1%
- viability, T/C (second compound 0.316 µM, first compound 3 µM): 34.6%
- viability, T/C (second compound 1 µM, first compound 0.00949 µM): 56.1%
- viability, T/C (second compound 1 µM, first compound 0.03 µM): 50.5%
- viability, T/C (second compound 1 µM, first compound 0.0949 µM): 37.7%
- viability, T/C (second compound 1 µM, first compound 0.3 µM): 39%
- viability, T/C (second compound 1 µM, first compound 0.949 µM): 33.2%
- viability, T/C (second compound 1 µM, first compound 3 µM): 26.8%
- viability, T/C (second compound 3.16 µM, first compound 0.00949 µM): 44.7%
- viability, T/C (second compound 3.16 µM, first compound 0.03 µM): 36.4%
- viability, T/C (second compound 3.16 µM, first compound 0.0949 µM): 28.8%
- viability, T/C (second compound 3.16 µM, first compound 0.3 µM): 27.1%
- viability, T/C (second compound 3.16 µM, first compound 0.949 µM): 26.2%
- viability, T/C (second compound 3.16 µM, first compound 3 µM): 19.8%
- viability, T/C (second compound 10 µM, first compound 0.00949 µM): 32.8%
- viability, T/C (second compound 10 µM, first compound 0.03 µM): 29.2%
- viability, T/C (second compound 10 µM, first compound 0.0949 µM): 21.7%
- viability, T/C (second compound 10 µM, first compound 0.3 µM): 22.6%
- viability, T/C (second compound 10 µM, first compound 0.949 µM): 24%
- viability, T/C (second compound 10 µM, first compound 3 µM): 12.9%
